Marks after values point to notes of the source that are not given here.

For the first data set the following is noted: pH 2.3.
With `CCOC(=O)C(C#N)=C(NC(C)C(C)C)c1cccnc1-c1cc(Cl)cc(Cl)c1` (stereo not drawn) [Compound 975], the Log P – broadly, a log measure of how a compound divides between an organic and an aqueous phase – was 4.68.
Same read-out and setting: as for `CCOC(=O)C(C#N)=C(Nc1ccccc1F)c1cccnc1Cl` [Compound 1590], the figure is 2.87.

Staying with this data set, now noted: pH 2.7.
On to `CC#CC1(NC(=C(C#N)C(=O)OCC)c2cn(C)nc2C(F)F)CCCC1` [Compound 1143], for which the “Log P” value is 3.39^[a].
For `C=CC(COCc1ccccc1)NC(=C(C#N)C(=O)OCC)c1cn(C)nc1C(F)F` (stereo not drawn) [Compound 691], the “Log P” value was 3.51^[a].
Same read-out and setting: to `CCOC(=O)C(C#N)=C(Nc1ccc2ncsc2c1)c1cccnc1Cl` [Compound 1269] belongs 2.54^[a].
Same read-out and setting: as for `CCOC(=O)C(C#N)=C(NC(C)COc1ccccc1C)c1cccnc1Cl` (stereo not drawn) [Compound 1155], the figure is 4.01^[a].
The same measure, in the same setting: to `CCOC(=O)C(C#N)=C(NC(C)c1ccccc1C)c1cn(C)nc1C(F)F` (stereo not drawn) [Compound 1365] belongs 3.46^[a]; to `CCOC(=O)C(C#N)=C(NCc1nc2ccccc2s1)c1ccsc1Br` [Compound 248], 3.55^[a].
Turning to `CCOC(=O)C(C#N)=C(NC(C)c1nccs1)c1sc(Cl)nc1Cl` (racemic) [Compound 242], the log partition coefficient (Log P) was 3.27^[a].
For the compound `CCOC(=O)C(C#N)=C(NC(C)C(=O)NC)c1conc1C` (stereo not drawn) [Compound 629], the “Log P” value was 1.57^[a].
The same measure, in the same setting: to `CCOC(=O)C(C#N)=C(NC(C)COCc1ccccc1)c1cn(C)nc1C(F)F` (stereo not drawn) [Compound 739] belongs 3.48^[a]; to `C=Cc1nn(C)cc1C(NC(C)CF)=C(C#N)C(=O)OCC` (stereo not drawn) [Compound 749], 2.25^[a]; to `CCNC(=O)C(C#N)=C(NC(C)C(C)C)c1cccnc1C#N` (stereo not drawn) [Compound 1199], 2.64^[a].
On the same count and under the same terms, to `CCOC(=O)C(C#N)=C(NC(C)c1nccs1)c1cc(Cl)ncc1Cl` (racemic) [Compound 252] belongs 3.15^[a].
On the same count and under the same terms, to `CCOC(=O)C(C#N)=C(NC(C)(C)c1ccc(OC)cc1)c1cn(C)nc1C(F)F` [Compound 1229] belongs 3.35^[a]; to `CC(NC(=C(C#N)C(=O)O)c1cccnc1Cl)c1nccs1` (stereo not drawn) [Compound 1479], 1.01^[a]; to `CCOC(=O)C(C#N)=C(NCc1nccs1)c1cn(C)nc1C(F)(F)F` [Compound 138], 2.43^[a].
With `CCOC(=O)C(C#N)=C(NC(C)C(C)(C)C)c1sc(C)nc1C(F)(F)F` (racemic) [Compound 922], the “Log P” value is 4.21^[a].
The same measure, in the same setting: to `CCOC(=O)C(C#N)=C(NC(C)c1ccccn1)c1cn(C)nc1C(F)(F)F` (racemic) [Compound 140] belongs 2.75^[a]; to `CCOC(=O)C(C#N)=C(NC(C)(C)C(C)(C)C)c1cn(C)nc1C(F)F` [Compound 753], 3.46^[a]; to `CC(C)NC(=O)C(C#N)=C(NC(C)c1nccs1)c1sccc1Br` (stereo not drawn) [Compound 214], 3.11^[a].
Same read-out and setting: as for `CCOC(=O)C(C#N)=C(NC(C)CN)c1cn(C)nc1C(F)(F)F` (stereo not drawn) [Compound 632], the figure is 1.11^[a]; as for `C=CCOC(=O)C(C#N)=C(NC(C)c1nccs1)c1cn(C)nc1C(F)F` (mixture of isomers) [Compound 305], 2.59^[a].
On the same count and under the same terms, to `COC(=O)C(C#N)=C(Nc1ccc(Cl)cc1)c1sc(C)nc1C(F)(F)F` [Compound 517] belongs 3.55^[a]; to `CCOC(=O)C(C#N)=C(NC(c1cc2ccccc2s1)C(F)(F)F)c1nsc(Cl)c1Cl` (stereo not drawn) [Compound 69], 5.11^[a].
In the case of `CCOC(=O)C(C#N)=C(NCc1ccc(C)c(C)n1)c1cn(C)nc1C(Cl)Cl` [Compound 1575], the “Log P” value is 2.07^[a].
Same read-out and setting: as for `CCOC(=O)CC(C)NC(=C(C#N)C(=O)OCC)c1cn(C)nc1C(F)F` (stereo not drawn) [Compound 1139], the figure is 2.66^[a].
The same measure, in the same setting: as for `CC(NC(=C(C#N)C(=O)N1CCSC1C)c1cccnc1Cl)c1nccs1` (stereo not drawn) [Compound 1594], the figure is 2.76^[a]; as for `CCOC(=O)C(C#N)=C(NC(C)CN(C)C)c1nsc(Cl)c1Cl` (racemic) [Compound 588], 1.41^[a]; as for `CCOC(=O)C(C#N)=C(NC(C)c1nccs1)c1c(C)nn(C)c1Cl` (stereo not drawn) [Compound 98], 2.52^[a].
On the same count and under the same terms, as for `CCOC(=O)C(C#N)=C(NC(C)c1cscn1)c1ccnc(Cl)c1Cl` (mixture of isomers) [Compound 290], the figure is 2.92^[a].
Regarding `COC(=O)C(C#N)=C(Nc1ccc(SC)cc1)c1sc(C)nc1C(F)(F)F` [Compound 516], the “Log P” value is 3.53^[a].
Still for that read-out and setting: to `COC(=O)C(C#N)=C(NC(C)CCc1cccc(C)c1)c1cccnc1Cl` (stereo not drawn) [Compound 425] belongs 3.68^[a]; to `CCCC(CO)NC(=C(C#N)C(=O)OCC)c1cccnc1Cl` (stereo not drawn) [Compound 1368], 2.45^[a].
The same measure, in the same setting: as for `CCOC(=O)C(C#N)=C(NC(C)C(N)=O)c1cccnc1C(F)(F)F` (stereo not drawn) [Compound 705], the figure is 1.91^[a]; as for `CCOC(=O)C(C#N)=C(NC(C)(C)C(C)(C)C)c1cccnc1Cl` [Compound 1273], 3.8^[a].
Same read-out and setting: as for `CCOC(=O)C(C#N)=C(NC(C)COC)c1ccnc2ccccc12` (stereo not drawn) [Compound 1499], the figure is 2.5^[a]; as for `COC(=O)C(C#N)=C(NC1CCCC2CCCCC21)c1cccnc1Cl` (stereo not drawn) [Compound 1084], 4.25^[a].
On to `CCOC(=O)C(C#N)=C(NC(C(=O)OCC)c1ccccc1)c1cccnc1Cl` (stereo not drawn) [Compound 1379], for which the “Log P” value was 3.39^[a].
On the same count and under the same terms, as for `CCOC(=O)C(C#N)=C(NC(C)CCCC(C)C)c1cn(C)nc1C(F)F` (stereo not drawn) [Compound 925], the figure is 4.26^[a].
As for `COC(=O)C(C#N)=C(NC(C)C(=O)Nc1ccc2ccccc2c1)c1sc(C)nc1C(F)(F)F` (racemic) [Compound 661], the “Log P” value is 3.69^[a].
Same read-out and setting: to `CCOC(=O)C(C#N)=C(NC(C)C(=O)Nc1ccc2ccccc2c1)c1sc(C)nc1C(F)(F)F` (racemic) [Compound 676] belongs 3.99^[a]; to `CCOC(=O)C(C#N)=C(NC(C)C(N)=O)c1c(C)nn(C)c1Cl` (stereo not drawn) [Compound 607], 1.58^[a].
Take `CCNC(=O)C(C#N)=C(NC(C)c1ccccn1)c1cccnc1Cl` (stereo not drawn) [Compound 1584]: the “Log P” value is 1.93^[a].
Still for that read-out and setting: to `CCOC(=O)C(C#N)=C(NCc1ccc(C)c(C)n1)c1scnc1Cl` [Compound 1478] belongs 1.94^[a]; to `CCOC(=O)C(C#N)=C(NCC(C)c1nccs1)c1cccnc1Cl` (stereo not drawn) [Compound 331], 2.57^[a].
The same measure, in the same setting: to `CCOC(=O)C(C#N)=C(NC(C)C(N)=O)c1cc(Cl)ncc1Cl` (stereo not drawn) [Compound 721] belongs 2.64^[a].
Same read-out and setting: as for `CCOC(=O)C(C#N)=C(NC(C)C(C)C)c1sc(Cl)nc1Cl` (stereo not drawn) [Compound 973], the figure is 4.23^[a].
For the compound `CCOC(=O)C(C#N)=C(NC(C)C(=O)NC)c1ccnc(Cl)c1Cl` (stereo not drawn) [Compound 730], the “Log P” value was 2.08^[a].
On the same count and under the same terms, as for `CCOC(=O)C(C#N)=C(NC(C)c1nc(C)cs1)c1cccnc1Cl` (stereo not drawn) [Compound 1536], the figure is 2.88^[a].
The same measure, in the same setting: as for `CCOC(=O)C(C#N)=C(NC(C)COc1ccccc1Cl)c1cn(C)nc1C(F)F` (stereo not drawn) [Compound 741], the figure is 3.6^[a]; as for `CCOC(=O)C(C#N)=C(NCc1ccccc1SC)c1sc(C)nc1C(F)(F)F` [Compound 464], 3.87^[a].
Turning to `CCOC(=O)C(C#N)=C(Nc1ccccc1SC)c1cn(C)nc1C(F)F` [Compound 349], the “Log P” value is 3.13^[a].
With `CCOC(=O)C(C#N)=C(NC(C)c1ccc(Cl)cc1)c1sccc1Cl` (stereo not drawn) [Compound 434], the “Log P” value is 4.4^[a].
On the same count and under the same terms, to `CCOC(=O)C(C#N)=C(NC(C)C(N)=O)c1ccncc1Cl` (stereo not drawn) [Compound 722] belongs 1.65^[a].
Still for that read-out and setting: as for `CCOC(=O)C(C#N)=C(Nc1ccc2ncsc2c1)c1sccc1C(F)(F)F` [Compound 509], the figure is 3.21^[a].
Same read-out and setting: to `COC(=O)C(C#N)=C(NC(c1ccc(Cl)cc1)C1CC1)c1cccnc1Cl` (stereo not drawn) [Compound 381] belongs 3.58^[a]; to `CCOC(=O)C(C#N)=C(Nc1ccc(N(C)C)cc1)c1sccc1Br` [Compound 489], 3.76^[a]; to `CCOC(=O)C(C#N)=C(NC(C)C(N)=O)c1ccnc(Cl)c1Cl` (stereo not drawn) [Compound 729], 1.88^[a].
In the case of `CCOC(=O)C(C#N)=C(NC(C#N)C(C)C)c1cn(C)nc1C(F)F` (stereo not drawn) [Compound 1422], the “Log P” value is 2.76^[a].
On the same count and under the same terms, to `CCOC(=O)C(C#N)=C(NC(C)C(C)Sc1ccccc1)c1cccnc1Cl` (stereo not drawn) [Compound 1159] belongs 4.13^[a].
Still for that read-out and setting: to `CCOC(=O)C(C#N)=C(NC1(c2c(F)cccc2F)CC1)c1cn(C)nc1OC` [Compound 508] belongs 3.02^[a].
On the same count and under the same terms, to `COC(=O)C(C#N)=C(NC(CC(F)(F)F)c1ccccc1)c1cccnc1Cl` (stereo not drawn) [Compound 389] belongs 2.98^[a].
Take `CC(C)C(C)NC(=C(C#N)C(=O)Nc1ccncc1)c1cccnc1Cl` (stereo not drawn) [Compound 1515]: the “Log P” value was 1.58^[a].
`CCOC(=O)C(C#N)=C(NC(C#N)c1cccc(Cl)c1Cl)c1cn(C)nc1C(F)F` (stereo not drawn) [Compound 1219]: the “Log P” value is 3.44^[a].
Regarding `CCOC(=O)C(C#N)=C(NC(C)c1ccc(Cl)cc1)c1ccncc1Cl` (racemic) [Compound 541], the “Log P” value was 3.78^[a].
Same read-out and setting: as for `CCOC(=O)C(C#N)=C(NC(C)C(C)C)c1ccncc1Cl` (stereo not drawn) [Compound 978], the figure is 3.29^[a].
Same read-out and setting: to `CCOC(=O)C(C#N)=C(NC(C)C(=O)OCC)c1sccc1C(F)(F)F` (racemic) [Compound 656] belongs 3.44^[a].
Take `CCOC(=O)C(C#N)=C(NC(C)C1CCCCC1)c1sc(C)nc1C(F)(F)F` (stereo not drawn) [Compound 876]: the “Log P” value is 4.86^[a].
For `CCOC(=O)C(C#N)=C(NC(C)c1ccccn1)c1cn(C)nc1C(F)F` (stereo not drawn) [Compound 325], the “Log P” value is 2.39^[a].
Same read-out and setting: to `CCOC(=O)C(C#N)=C(NC(C)c1ccc(Cl)s1)c1cccnc1Cl` (mixture of isomers) [Compound 281] belongs 3.8^[a].

Staying with this data set, now noted: pH 7.5.
On to `CCOC(=O)C(C#N)=C(NC(C)C(C)C)c1cccnc1-c1cc(Cl)cc(Cl)c1` (stereo not drawn) [Compound 975], for which the “Log P” value was 4.67.
For the compound `CCOCCOC(=O)C(C#N)=C(NC(C)c1nccs1)c1cccnc1Cl` (stereo not drawn) [Compound 12], the “Log P” value was found to be 2.4.
The same measure, in the same setting: as for `CCOC(=O)C(C#N)=C(Nc1ccccc1F)c1cccnc1Cl` [Compound 1590], the figure is 2.85; as for `COC(=O)C(C#N)=C(NC(C)C1CC1)c1cccnc1Cl` (mixture of isomers) [Compound 1307], 2.58.
